Measurements from article PMC10693550, “Programmable de novo designed coiled coil-mediated phase separation in mammalian cells” (Nature Communications, 2023).
Blank lines part the entries; values can stand above or below the molecule they belong to. No end group written: not given here.

Key:
[1] = target: complementary peptide; experiment: Isothermal titration calorimetry (ITC) of orthogonal CC peptide pairs; type: binding; details: 50 mM Tris pH 7.5, 150 mM NaCl, 1 mM TCEP, uncertainty from Monte Carlo simulation of the fit
Experimental: MicroCal PEAQ-ITC (Malvern) was used to measure the equilibrium dissociation constant (Kd) of orthogonal CC pairs. A 40-µl injection syringe was filled with the peptide solution (1 mM P5f, P13f; 5.6 mM S1h or 5.4 mM S3h) in 50 mM Tris pH of 7.5, 150 mM NaCl, and 1 mM TCEP. The samples were injected into an ITC cell (volume 200 µl) filled with a complementary peptide (100 µM P6f or P14f and 560 µM S2h or 540 µM S4h) in a matching buffer through a 19-step process. The injection volumes were 2 µl and were spaced 120 s apart, except for the first priming injection of 0.4 µl with 150 s spacing. Raw thermograms were integrated with the software NITPIC[83], interaction analysis was done with SEDPHAT[84], and titration curves were visualized with a companion GUSSI software. Monte Carlo simulation for non-linear regression, aligning the model function with experimental values 1000 times was used to obtain uncertainties in the fitted model.
Supplementary Figure 2: Binding analysis between the weak 3-heptad and strong 4-heptad CC forming segment using isothermal titration calorimetry (ITC). a) For peptide pair S1h + S2h peptide concentration in 40 µl injection syringe was 5.6 mM for S1h and concentration of complementary peptide S2h in ITC cell (volume 200 µl) was 560 […]
concentration in 40 µl injection syringe was 5.4 mM S3h and concentration of complementary peptide S4h in ITC cell (volume 200 µl) was 540 µM.
± 0.5 kcal/mol. For peptide pair c) P5f + P6f and d) P13f + P14f, which are 4-heptad CC.
Peptide concentration in 40 µl injection syringe was 1 mM for P5f and P13f and concentration […]
± 0.5 µM and ΔH -13.7 +- 0.6 kcal/mol and d) Kd 2.3 ± 0.2 µM and ΔH -14.7 ± 0.6 kcal/mol.
All the peptides were dissolved in a matching buffer 50 mM Tris pH of 7.5, 150 mM NaCl, […]
(1 picture or pasted object on this page, not shown here)

[2] = tested on: FKBP/FRB; experiment: Rapamycin-induced condensate assembly, split two-chain system with FKBP and FRB domains, NIH-3T3 cells; type: cell-based, H.sapiens; details: 1 μM rapamycin; NIH-3T3 cells expressing Cit(S1-S3)3-SAH, BFP(S2)3-gsFKBP and FRB(S4)3-gs; none with vehicle control
Description: (§1) Our final goal was to engineer new properties into condensates and to provide regulation of CC-LLPS assembly or disassembly. […] To introduce chemically regulated assembly, we incorporated FKBP into the first chain and FRB domain into the second chain of the split protein. Upon the addition of rapamycin, those two domains heterodimerize and thus extend the length of the polypeptide.
(§2) Fig. 6 Design of chemical regulation of CC-LLPS. a One polypeptide chain of a condensate-forming pair BFP-(S2)3(S4)3-gs, was separated into two chains, each with 3 CC domains BFP-(S2)3-gs and (S4)3-gs. […] Scale bars, 10 μm.

[3] = tested on: FKBP/FRB; experiment: Rapamycin-induced assembly of single-chain condensates from FKBP/FRB-fused APPAP halves, HEK293T cells; type: cell-based, H.sapiens; details: 1 μM rapamycin; HEK293T cells expressing Cit-APPAP-gs-FKBP and FRB-APPAP-gs; none with DMSO even 1 hour post-addition
Description: as §1, §2

[4] = tested on: FKBP/FRB; experiment: Rapamycin-regulated split TEVp protease dissolution of condensates, HEK293T cells; type: cell-based, H.sapiens; details: 1 μM rapamycin; HEK293T cells with TEVp site in one condensate-forming chain and rapamycin-regulated split TEVp
Description: as §2

[5] = target: T1, S2h; experiment: ITC; MicroCal PEAQ-ITC; syringe peptide (1 mM P5f, P13f; 5.6 mM S1h or 5.4 mM S3h) injected into the cell with the complementary peptide (100 µM P6f or P14f; 560 µM S2h or 540 µM S4h); 50 mM Tris pH 7.5, 150 mM NaCl, 1 mM TCEP; concentrations of the S peptides not stated; details: both partners purified
T1 chain: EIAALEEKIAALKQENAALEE

[6] = target: T2, P14f; experiment: as above; details: both partners purified
T2 chain: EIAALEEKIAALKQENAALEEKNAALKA

[7] = target: T3, S4h; experiment: as above; details: both partners purified
T3 chain: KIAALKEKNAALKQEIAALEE

[8] = target: T4, P6f; experiment: as above; details: both partners purified
T4 chain: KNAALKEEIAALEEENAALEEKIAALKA

[9] = 3-heptad Sh pairs, 5.6 mM S1h or 5.4 mM S3h in syringe into 560 µM S2h or 540 µM S4h in cell
[10] = 4-heptad pairs, 1 mM P5f or P13f in syringe into 100 µM P6f or P14f in cell

Kd [1, 9]: 340 ± 70 µM
Molecule: EIAALEEENAALEQKIAALKE [S3h-S4h]

Kd [1, 9]: 2300 ± 1500 µM
Molecule: KIAALKEEIAALEQKNAALKE [S1h-S2h]

Kd [1, 10]: 5.9 ± 0.5 µM
Molecule: ENAALEEKIAALKEKNAALKEEIAALEA [P5f-P6f]

Kd [1, 10]: 2.3 ± 0.2 µM
Molecule: KIAALKEEIAALEQKNAALKEENAALEA [P13f-P14f]

Second part, the molecule before the results:

Molecule: CO[C@H]1C[C@@H]2CC[C@@H](C)[C@@](O)(O2)C(=O)C(=O)N2CCCC[C@H]2C(=O)O[C@H]([C@H](C)C[C@@H]2CC[C@@H](O)[C@H](OC)C2)CC(=O)[C@H](C)/C=C(\C)[C@@H](O)[C@@H](OC)C(=O)[C@H](C)C[C@H](C)/C=C/C=C/C=C/1C [rapamycin, Rapamycin]
time after addition at which condensates started to form [2]: 20 min | condensate formation after addition (in words) [3]: after a few minutes | dissolution of condensates after addition (in words) [4]: dissolution of condensates after a few minutes

Molecule: KIAALKEEIAALEQKNAALKE [S1h]
Kd [5]: 2300 ± 1500 µM

Molecule: KIAALKEEIAALEQKNAALKEENAALEA [P13f]
Kd [6]: 2.3 ± 0.2 µM

Molecule: EIAALEEENAALEQKIAALKE [S3h]
Kd [7]: 340 ± 70 µM

Molecule: ENAALEEKIAALKEKNAALKEEIAALEA [P5f]
Kd [8]: 5.9 ± 0.5 µM
